# Reference: article PMC6680430, “Quantitative Prediction of Human Pharmacokinetics and Pharmacodynamics of CKD519, a Potent Inhibitor of Cholesteryl Ester Transfer Protein (CETP)” (Pharmaceutics, 2019)
# What was measured:
# [1] = human PK parameter prediction by allometric scaling; conditions: 60 kg human
# Description: The volume parameters (Vc, Vp) estimated from the PK models for three different species were correlated through simple allometric scaling (=Body weight-dependent allometry) in the PK model fitted to the overall data from all species. This method is based on the power–law function, which can be represented as follows:Y = a × BW^b,(2) where Y represents the PK parameter of interest from each animal; BW represents the average body weight of each species from the relevant in vivo studies; and a and b are the allometric coefficient and exponent of the equation, respectively.
# For the allometric scaling of the clearance parameters (CL, Q) in the same model, physiological parameters such as brain weight (BrW) or maximum lifespan potential (MLP) of each species were incorporated if necessary. To address the uncertainty, two allometric relationships were selected as the final models, and two sets of human PK parameters were predicted: one from the allometry of best fit and the other from the most conventional simple allometry. The appropriateness of the extrapolated human PK parameter values was assessed by comparing them with those of the comparator. Since allometric scaling is not generally recommended for the absorption parameter, human absorption parameters were determined by the final estimates from the overall PK model instead of the allometric method.
# As mentioned in Section 2.4, predicted human (with the body weight of 60 kg) PK parameter values were obtained using the simple and BrW-corrected (the best fit) allometric relationships and the final estimates for allometric coefficient and exponent in overall PK models.
# CETP = experiment: human PK/PD modeling and simulation of CETP inhibition
# Description: The efficacious dose was defined as the dose accomplishing the threshold in ≥50% of the population, which was determined using the median. Thus, the variability of the parameters was not incorporated in the simulation.
# [2] = absolute bioavailability from first-in-human study (observed oral AUC vs predicted intravenous AUC); type: in vivo; conditions: AUC ratio observed oral / predicted intravenous
# Description: The absolute bioavailability was estimated for each dose (Table 7) by comparing the AUC of the observed oral PK profile in the first-in-human study and that of the predicted human i.v. PK profile from animal PK data. […] Even though the trends were similar, absolute bioavailability estimated by the observed PK profile was less than one-fifth of the predicted bioavailability using the animal PK data. […] Delayed absorption was also found, and the difference in formulation between animals and humans was considered to have caused the delay by affecting the absorption rate. Simulated AUC, Cmax, and Tmax were within 2-folds, the range that is generally accepted for animal-to-human predictions.
# [3] = preclinical in vitro and in vivo efficacy studies (off-target effects)
# [4] = biological target: T1, cholesteryl ester transfer protein (CETP) (Homo sapiens, UniProt P11597); experiment: in vitro potency, CETP inhibition (in-house data); conditions: read-out: IC50 (in vitro potency)
# T1 sequence (P11597 18-493): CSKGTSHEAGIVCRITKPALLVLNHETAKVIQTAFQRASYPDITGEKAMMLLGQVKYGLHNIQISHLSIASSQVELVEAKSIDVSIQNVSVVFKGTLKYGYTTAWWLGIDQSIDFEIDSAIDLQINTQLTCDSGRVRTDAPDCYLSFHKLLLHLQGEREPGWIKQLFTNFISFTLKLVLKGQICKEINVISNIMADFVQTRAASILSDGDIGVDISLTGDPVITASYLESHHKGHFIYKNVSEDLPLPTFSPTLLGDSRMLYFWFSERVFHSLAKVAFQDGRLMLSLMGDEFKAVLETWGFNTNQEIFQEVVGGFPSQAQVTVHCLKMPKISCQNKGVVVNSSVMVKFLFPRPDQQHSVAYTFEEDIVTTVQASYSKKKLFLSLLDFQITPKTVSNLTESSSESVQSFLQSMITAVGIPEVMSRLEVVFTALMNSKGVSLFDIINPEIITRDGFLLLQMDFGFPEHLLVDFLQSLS
# [5] = brain weight-corrected allometry
structure (smiles),measurement,setting,value
COc1cc(F)c(C(C)C)cc1C1=C(CN2C(=O)O[C@H](c3cc(C(F)(F)F)cc(C(F)(F)F)c3)[C@@H]2C)CC(C)(C)CC1 [CKD519],"CL, predicted human",[1]; [5],0.777 L/h
same,"F 50, predicted human",[1]; [5],10.6
same,"F max, predicted human",[1]; [5],0.192
same,"Q, predicted human",[1]; [5],2.39 L/h
same,"Vc, predicted human",[1]; [5],4.41 L
same,"Vp, predicted human",[1]; [5],48.8 L
same,"α, predicted human",[1]; [5],4.51
same,"β, predicted human",[1]; [5],3.11
same,"CL, predicted human",[1]; simple allometry,0.264 L/h
same,"F 50, predicted human",[1]; simple allometry,10.6
same,"F max, predicted human",[1]; simple allometry,0.192
same,"Q, predicted human",[1]; simple allometry,1.17 L/h
same,"Vc, predicted human",[1]; simple allometry,3.29 L
same,"Vp, predicted human",[1]; simple allometry,49.7 L
same,"α, predicted human",[1]; simple allometry,4.51
same,"β, predicted human",[1]; simple allometry,3.11
same,IC50,"CETP; comparator in vivo IC50 22 nM scaled by in vitro potency ratio, read-out: assumed in vivo IC50",37 nM
same,IC50 reflected in the PD model,CETP; corresponds to 22 nM (reported PD parameter of comparator scenario),0.01322 µg/mL
same,IC50 reflected in the PD model,CETP; corresponds to 37 nM (in vitro potency ratio scenario),0.02224 µg/mL
same,Absolute Bioavailability,[2]; oral dose 25 mg,0.0362
same,Absolute Bioavailability,[2]; oral dose 50 mg,0.0321
same,Absolute Bioavailability,[2]; oral dose 100 mg,0.0191
same,Absolute Bioavailability,[2]; oral dose 200 mg,0.0140
same,Absolute Bioavailability,[2]; oral dose 400 mg,0.00814
same,off-target effects,[3],no off-target effects
same,IC50,[4],2.3 nM
